Source: PMC5290484, “Structure and lipid-binding properties of the kindlin-3 pleckstrin homology domain” (Biochemical Journal, 2017)
Read-outs that look alike come from different tables or passages of the source.

Tests used:
kindlin-3 PH domain [1] = target: T1, kindlin-3 PH domain (Mus musculus, UniProt Q8K1B8); test: SPR, immobilised biotinylated kindlin-3 PH domain as ligand, lipid nanodiscs as analyte; format: binding
T1 construct: kindlin-3 PH domain (residues 344–479); His6-GST (tandem), followed by HRV-3C site (N, cleaved yes); made in house; host or cells: BirA+ Escherichia coli strain
Protocol: (§1) The observation in MD simulation that multiple phosphoinositol molecules may bind to more than one site on a single PH domain (Figures 2 and 3) led us to attempt further verification of this mode of interaction experimentally. […] To study the effect of phosphatidylinositol lipid concentrations on their binding by PH domains, we performed the SPR experiments in an inverted set-up. The biotinylated PH domain was immobilised onto the sensor chip and the nanodiscs were prepared as the analyte.
POPC and POPE (1-palmitoyl-2-oleoyl-sn-glycero-3-phosphoethanolamine) were purchased from Avanti Polar Lipids, and PtdIns(4,5)P2 (P-4516), PtdIns(3,4,5)P3 (P-3924), and Ins(1,3,4,5)P4 (Q-1345) were purchased from Echelon Biosciences. Nanodiscs were prepared following standard protocols. Briefly, to prepare nandiscs containing 5% (mol/mol) PtdIns(3,4,5)P3, a mixture of 200 µl of 10 mg/ml POPC, 200 µl of 10 mg/ml POPE together with 670 µl of 0.5 mg/ml PtdIns(3,4,5)P3 in chloroform were dried on a clean Pyrex tube under argon. Chloroform residue was then removed by desiccation in a desiccator attached on a VARIO-SP diaphragm pump (Vacuubrand). The lipid film was subsequently hydrated by adding 1 ml of solubilisation buffer [20 mM HEPES (pH 7.5), 150 mM NaCl, and 17 mM Na-cholate] followed by vigorous votexing. […]

kindlin-3 PH domain [2] = target: T1, kindlin-3 PH domain; test: SPR, immobilised biotinylated lipid headgroup as ligand, kindlin-3 PH domain WT as analyte; format: binding
From the text: To verify the potential interaction between clustered phosphatidylinositol phosphates and the kindlin-3 PH domain observed in our MD simulations, we conducted surface plasmon resonance (SPR) experiments. Firstly, a biotinylated inositol phosphate was immobilised onto a streptavidin-derivatised sensor chip, as in previous studies. The use of streptavidin-mediated immobilisation meant that the distance separating individual lipids would be larger than the size of the tetrameric streptavidin, and therefore than the PH domain itself, meaning that one PH domain would be able to bind no more than one lipid headgroup simultaneously, imposing one-to-one binding in the interaction (Figure 4A). […] We note that, in the MD simulation with the mutated form of the kindlin-3 PH domain, the protein is capable of binding to the bilayer in a similar orientation to the wild type (WT); however, in many simulations, it quickly dissociates from the bilayer (Supplementary Figure S8). A naturally occurred IPRR (isoleucine–proline–arginine–arginine) insertion in the β1–β2 loop of kindlin-3 has been reported to disable integrin activation and thus lymphocyte adhesion and migration.
(§2) SPR experiments were performed using a Biacore T200 machine (GE Healthcare Life Sciences) at 20°C in 10 mM HEPES (pH 7.5) and 150 mM NaCl. PtdIns(4,5)P2 (C-45B6a) and PtdIns(3,4,5)P3 (C-39B6a) were purchased from Echelon Biosciences. The BIAcore CM5 chip (GE Healthcare Life Sciences) was firstly covered with streptavidin following the manufacturer's instructions before the biotinylated PIPs or biotinylated proteins were immobilised. The analyte with twofold serial dilutions was applied at a flow rate of 20 µl/min for 180 s followed by 600 s of dissociation time. The biosensor chip was regenerated after each sample injection cycle with a different buffer in the two experimental set-ups: in the case of immobilised PIPs on the sensor chip, 0.1% SDS was used; when the PH domain was immobilised, then the surface was regenerated by 2 M MgCl2. The data were fit with a 1:1 Langmuir adsorption model (B = BmaxC/(KD + C), where B is the response of bound analyte and C is the concentration of the analyte in the sample to calculate the dissociation constant (KD) using the BIAanalysis software. The molecular mass of the nanodiscs for SPR analysis was estimated to be 120 kDa.

Grp1 PH domain [3] = target: T2, Grp1 PH domain (Homo sapiens, UniProt O43739); set-up: method as in PMID 26977543; details: same method; ref [34]; cited from earlier work
T2 construct: UniProtKB: O43739) PH domain (residues 264–392) were cloned into a pOPINJ vector; His6-GST (tandem), followed by HRV-3C site (N, cleaved yes); made in house; host or cells: E. coli (same protocol as kindlin-3 PH, B834)
T2 sequence (O43739 264-392): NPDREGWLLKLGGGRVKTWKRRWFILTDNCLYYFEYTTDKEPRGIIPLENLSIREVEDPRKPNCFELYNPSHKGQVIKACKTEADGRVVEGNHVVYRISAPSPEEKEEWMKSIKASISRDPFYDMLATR

Grp1 PH domain [4] = target: T2, Grp1 PH domain; test: SPR, immobilised lipid headgroup as ligand, Grp1 PH domain as analyte; format: binding
From the text: We further asked whether our observations are specific to the kindlin-3 PH domain (and similar domains) or could also be shown for PH domains which are already known to bind to inositol phosphate species in a classical, 1:1 interaction mode. If they could be shown for such well-characterised domains, then our results with the kindlin-3 PH domain would seem questionable. […] So, in the case of Grp1, there is only a five times difference in affinity between immobilised lipid headgroups and whole lipids in a lipid nanodisc (rather than the ∼100× enhancement observed with the kindlin-3 PH domain).
SPR experiments were performed using a Biacore T200 machine (GE Healthcare Life Sciences) at 20°C in 10 mM HEPES (pH 7.5) and 150 mM NaCl. PtdIns(4,5)P2 (C-45B6a) and PtdIns(3,4,5)P3 (C-39B6a) were purchased from Echelon Biosciences. The BIAcore CM5 chip (GE Healthcare Life Sciences) was firstly covered with streptavidin following the manufacturer's instructions before the biotinylated PIPs or biotinylated proteins were immobilised. The analyte with twofold serial dilutions was applied at a flow rate of 20 µl/min for 180 s followed by 600 s of dissociation time. […]

[5] = system: T3, kindlin-3 PH domain, two lysines within the β1–β2 loop mutated; test: SPR, immobilised kindlin-3 PH domain with two β1–β2 loop lysines mutated, lipid nanodiscs as analyte; format: binding, mouse; details: site-directed mutagenesis of two lysines within the β1–β2 loop
T3 construct: kindlin-3 PH domain (residues 344–479); His6-GST (tandem), followed by HRV-3C site (N, cleaved yes); made in house; host or cells: BirA+ Escherichia coli strain
Protocol: as §1
as §2, with “The data were fit with a 1:1 Langmuir adsorption model (B = BmaxC/(KD + C), where B is the response of bound analyte and C is the concentration of the analyte in the sample to calculate the dissociation constant (KD) using the BIAanalysis software. The molecular mass of the nanodiscs for SPR analysis was estimated to be 120 kDa.” left out

[6] = immobilised headgroup on streptavidin chip, WT PH domain as analyte, 20°C, 10 mM HEPES pH 7.5, 150 mM NaCl, 1:1 Langmuir fit, read-out: dissociation constant (KD)

T1 sequence (Q8K1B8 344-479): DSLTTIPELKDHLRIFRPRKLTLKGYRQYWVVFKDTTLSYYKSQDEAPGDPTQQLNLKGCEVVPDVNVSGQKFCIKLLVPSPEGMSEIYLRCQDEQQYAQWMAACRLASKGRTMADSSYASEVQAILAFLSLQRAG

Substance	nanodisc binding to the PH domain (in words) (kindlin-3 PH domain [1]; PtdIns(3,4,5)P3 composition reduced to 1% of nanodisc lipids)	Kd (kindlin-3 PH domain [2]; immobilised headgroup on streptavidin chip, WT PH domain as analyte, 20°C, 10 mM HEPES pH 7.5, 150 mM NaCl, 1:1 Langmuir fit, listed as PIP3, read-out: dissociation constant (KD)) [µM]	Kd (kindlin-3 PH domain [2]; [6]) [µM]	PMF well depth (Grp1 PH domain [3]) [kcal/mol]	Bmax (Grp1 PH domain [4]; immobilised PtdIns(3,4,5)P3 headgroup) [RU]	Kd (Grp1 PH domain [4]; immobilised headgroup) [nM]	nanodisc binding to the PH domain (in words) [5]	nanodisc binding to the PH domain (in words) (kindlin-3 PH domain [1]; inositol phosphate lipid 5% of total lipids in nanodisc)	Kd (kindlin-3 PH domain [2]; immobilised headgroup, PH domain as analyte, as given in the abstract, read-out: affinity (KD)) [µM]
PtdIns(3,4,5)P3	abolishes nanodisc binding	~300	300	-5.3	7150	2800 ± 400	abolishes nanodisc binding	–	–
PtdIns(4,5)P2	–	–	1100	-3.8	–	–	–	no affinity	1000
